# Measurements from patent publication US8163805B2, “Small molecule antagonists of Bcl-2 family proteins” (The Regents of the University of Michigan, priority 2001, dated 2012).
# Values joined by “and” are separate entries in the source; they are usually repeats but may differ in a detail not shown here. Equal entries are not always repeated.
# Legend:
# MDA-MB-231 cells = experiment: 5 day MTT cell growth assay, MDA-MB-231; type: cell-based, human; settings: breast cancer cell lines with high levels of Bcl-XL, FIG. 12
# Method: For example, the ability of gossypol compounds to inhibit MDA-MB-231 cell growth was tested in a 5 day MTT assay.
# Cells were seeded in 24 or 96-well-plates and gossypol compounds were prepared at 2-10 fold dilutions in suitable medium. Inhibition of cell viability was determined by treating the cells with the gossypol compounds for 24 hrs. […] Inhibition of cell growth was determined by treating cells with gossypol compounds for 3-6 days. […] In some embodiments, MTT assays are used to determine cell inhibition.
# Absorbance at 540 nm is used to measure the amount of formazan product.
# UM-SCC-6 = experiment: 6-day MTT cell growth, UM-SCC-6; type: cell-based, human; settings: read-out: IC50, inhibition of cell growth
# Method: (§1) UM-SCC and human fibroblast cell lines were continuously exposed to varying concentrations of (−)-gossypol in 6-day MTT cell survival assays. Control wells contained media (DMEM) with vehicle alone. For each data point n=5.
# (§2) Ten squamous cell carcinoma cell lines established at the University of Michigan (UM-SCC) and three human fibroblast lines were grown in Dulbecco's modified Eagle's medium (DMEM) supplemented with 10% fetal bovine serum. UM-SCC cell lines originated from the larynx (n=2; UM-SCC-12, -23), oral cavity/oropharynx (n=5; UM-SCC-1, -6, -14A, -74B, -81B), hypopharynx (n=1; UM-SCC-22A) and metastases from laryngeal cancers (n=2; UM-SCC-17B, -25). Human fibroblast cell lines originated from surgical specimens (fibroblast cell lines 2 and 3) and neonatal foreskin samples (fibroblast cell line 1).
# (§3) Logarithmically growing cell lines were cultured, washed, counted, and plated at 5,000-15,000 cells per well in duplicate wells of 96-well plates and incubated in DMEM overnight. […] The MTT assay measures cell survival based on mitochondrial conversion of MTT from a soluble tetrazolium salt into an insoluble colored formazan precipitate, which is dissolved in dimethyl sulfoxide and quantitated by spectrophotometry. […] Percent absorbance relative to control was plotted as a linear function of drug concentration.
# UM-SCC-1 [1] = experiment: 6-day MTT cell growth, UM-SCC-1; type: cell-based, human; settings: read-out: IC50, inhibition of cell growth
# Method: as §1, §2, §3
# fibroblasts = experiment: 6-day MTT cell survival, mean over fibroblasts; type: cell-based, human
# Bcl-XL = target: T1, Bcl-XL (Homo sapiens, UniProt Q07817, DEL45-84); experiment: FP binding assay, Flu-Bid 21-residue peptide and Bcl-XL (FIG. 5, 46)
# T1 construct: His-tag (N); made in house
# UM-SCC-1 [2] = experiment: Flow cytometric TUNEL apoptosis assay, UM-SCC-1; type: cell-based, human; settings: 10 μM, 48-hour
# Method: (§4) Briefly, FIGS. 24A-24C show apoptosis after (−)-gossypol as measured by a fluorescent flow cytometric TUNEL assay. Open peaks represent BrdU labeling of untreated cells. Shaded peaks indicate BrdU labeling of cell populations following 48-hour treatment with 10 μM (−)-gossypol; FIG. 24A, UM-SCC-cell lines with wild type p53; FIG. 24B, UM-SCC-cell lines with mutant p53; and FIG. 24C normal fibroblast cells.
# (§5) Apoptosis of UM-SCC cell lines following (−)-gossypol treatment was quantitatively detected by enzymatic labeling of DNA strand breaks using terminal deoxynucleotidyltransferase (TdT) and Alexa Fluor-BrdUTP, known as the TdT-UTP nick end-labeling (TUNEL) assay by flow cytometry. Cells were exposed to (−)-gossypol for 48 hours, harvested, fixed and TUNEL stained according to the manufacturer's protocol (Molecular Probes Inc., Eugene, Oreg.). Ten thousand cells were analyzed per sample using excitation of Alexa Fluor at 488 nm. Apoptotic index (AI) was defined as percent of apoptotic cells in the treatment population minus that in the vehicle control population.
# fibroblast cell lines = experiment: Flow cytometric TUNEL apoptosis assay, fibroblast cell lines; type: cell-based, human; settings: 10 μM, 48-hour
# Method: as §4, §5
# UM-SCC-1 [3] = experiment: Trypan blue exclusion cell death, UM-SCC-1; type: cell-based, human; settings: 10 μM, 48 hour
# Method: Cells were seeded in 24 or 96-well-plates and gossypol compounds were prepared at 2-10 fold dilutions in suitable medium. […] Cell viability was then determined by the trypan-blue assays. Inhibition of cell growth was determined by treating cells with gossypol compounds for 3-6 days. Cell inhibition was determined using XTT. In some embodiments, MTT assays are used to determine cell inhibition.
# Bcl-2 = target: T2, Bcl-2 (Homo sapiens, UniProt P10415); experiment: FP binding assay, Flu-Bad-25 peptide and GST-fusion Bcl-2 (FIG. 4, 45); settings: FIG. 4
# T2 construct: purchased Santa Cruz Biotechnology
# UM-SCC-74B = experiment: 6-day MTT cell growth, UM-SCC-74B; type: cell-based, human; settings: read-out: IC50, inhibition of cell growth
# Method: as §1, §2, §3
# [4] = system: Fib-3 (fibroblast cell line 3); experiment: 6-day MTT cell growth, Fib-3; type: cell-based, human; settings: read-out: IC50, inhibition of cell growth
# Method: as §1, §2, §3
# PARP protein = PARP protein cleavage; type: cell-based; settings: compared under identical doses
# T2 sequence (P10415 1-205 limits assumed): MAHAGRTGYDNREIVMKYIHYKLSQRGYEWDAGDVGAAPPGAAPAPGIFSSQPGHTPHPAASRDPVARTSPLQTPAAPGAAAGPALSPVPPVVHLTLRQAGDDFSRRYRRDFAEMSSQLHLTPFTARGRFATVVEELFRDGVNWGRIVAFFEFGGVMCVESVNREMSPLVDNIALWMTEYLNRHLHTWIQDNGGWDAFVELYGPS
# T1 sequence (Q07817 with tags, fused parts or gaps DEL45-84 limits assumed): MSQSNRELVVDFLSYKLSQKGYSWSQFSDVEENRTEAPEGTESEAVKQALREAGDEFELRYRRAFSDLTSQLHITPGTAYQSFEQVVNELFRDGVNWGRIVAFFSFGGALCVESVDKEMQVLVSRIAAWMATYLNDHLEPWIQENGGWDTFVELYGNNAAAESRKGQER
structure (smiles),measurement,setting,value
Cc1cc2c(C(C)C)c(O)c(O)c(C=O)c2c(O)c1-c1c(C)cc2c(C(C)C)c(O)c(O)c(C=O)c2c1O [(−)-gossypol],"potency in inhibition of cell growth relative to (+)-gossypol, first statement",MDA-MB-231 cells,2 times
same,"potency in inhibition of cell growth relative to (+)-gossypol, second statement",MDA-MB-231 cells,5-10 times
same,IC50,UM-SCC-6,11 µM
same,IC50,UM-SCC-1 [1],2 µM and 1.5 µM
same,IC50,fibroblasts,20.3 ± 9.2 µM
same,inhibition of binding between Bad BH3 peptide and Bcl-XL,Bcl-XL,directly inhibit binding between Bad BH3 peptide and Bcl-XL
same,apoptotic index (AI),UM-SCC-1 [2],90.1%
same,induction of apoptosis,fibroblast cell lines,no induction of apoptosis
same,surviving (trypan blue excluding) fraction relative to untreated controls,UM-SCC-1 [3],20%
same,inhibition of binding between Bid BH3 peptide and Bcl-2,Bcl-2,directly inhibit binding between Bid BH3 peptide and Bcl-2
same,IC50,UM-SCC-74B,4 µM
same,IC50,[4],18 µM
same,cleavage of PARP protein,PARP protein,more cleavage of PARP protein
